Like-named read-outs stand apart in the source and are kept apart here.
Key:
Format in all cases: cell-based
Details in all cases: 48 hours
IL-17FF = IL-17FF production by PHA-stimulated human PBMC (human IL-17F ELI-Pair)
Experimental: Analysis of Proliferation of and Cytokine Production by Human PBMC Stimulated with PHA
Peripheral blood mononuclear cells (PBMC) from healthy human donors were purified using Accuspin™ System-Histopaque-1077 (Sigma) according to the protocol recommended by the manufacturer. Purified PBMC were then washed twice with phosphate-buffered saline (PBS) and resuspended in RPMI1640 culture medium supplemented with 10% dialyzed heat inactivated fetal calf serum, 1.5 mM L-glutamine, 100 U penicillin/ml, and […] (all from PAN Biotech, Aidenbach, Germany). For stimulation, PBMC were seeded at 1×10^5 cells/well, activated with 2 μg/ml phytohaemagglutinin (PHA, Sigma) and incubated with the test compounds for 48 hours. IL-17A, IL-17F and INF-γ were then determined in the culture supernatant using a Luminex BioPlex system, following the manufacturer's instructions (BioRad, Munich, Germany). For screening, compounds were used at 10, 1, 0.1 and 0.01 μM. To determine the IC50, compounds were titrated semilogarithmically.
Cytokines were determined in the aforementioned culture supernatant using the following methods: IL-17AA/AF was measured using the Luminex BioPlex system (BioRad, Munich, Germany); IL-17AA using the human homodimer IL-17A ELISA Ready Set Go Kit from eBioscience (Frankfurt, Germany); IL-17FF using the human IL-17F ELI-Pair from Hölzel DiagnosticaGmBH (Köln, Germany); and IFN-γ using the OptEIA human IFN-g ELISA from BD Bioscience (Heidelberg, Germany), all following the manufacturer's instructions.

IFN-γ = IFN-γ production by PHA-stimulated human PBMC (OptEIA human IFN-g ELISA)
Outline: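 PBMC from healthy donors, 1×10^5/well, 2 μg/ml PHA + compound, 48 h. Supernatant cytokine by Luminex bead assay or ELISA as listed. Screen at 10/1/0.1/0.01 μM; IC50 via semilog titration.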

[1] = tested on: PBMC from healthy human donors; test: T cell proliferation assay (PHA-stimulated human PBMC, BrdU ELISA)
Experimental: Cell proliferation was analysed using the BrdU based cell proliferation ELISA from Roche (Mannheim, Germany) according to the manufacturer's instructions. T Cell Proliferation Assay Peripheral blood mononuclear cells (PBMC) from healthy human donors were isolated by centrifugation over Ficoll-Hypaque (Sigma-Aldrich, Germany) according to manufacturer's instructions. Purified PBMC were washed twice with PBS and resuspended in RPMI1640 culture medium supplemented with 10% dialyzed heat inactivated fetal calf serum, 1.5 mM L-glutamine, 100 U penicillin/ml, and […] (all from PAN Biotech, Aidenbach, Germany). For stimulation, PBMC were seeded at 1×10^5 cells/well, activated with 2 μg/ml phytohaemagglutinin (PHA, Sigma) and incubated with the test compound. After 48 hours proliferation was measured using the BrdU based cell proliferation ELISA from Roche (Mannheim, Germany) according to the manual.

[2] = PHA-stimulated human PBMC, column B, read-out: IC50 (IL-17FF)
[3] = PHA-stimulated human PBMC, column C, read-out: IC50 (IFNγ)
[4] = PHA-stimulated human PBMC, column D, read-out: IC50 (Tcell proliferation)
[5] = human PBMC, 2 μg/ml PHA, read-out: B: IC50 (IL-17FF)
[6] = human PBMC, 2 μg/ml PHA, read-out: C: IC50 (IFNγ)
[7] = human PBMC, 2 μg/ml PHA, read-out: D: IC50 (Tcell proliferation)

CC(C)OC(=O)c1c(-c2c(F)cccc2Cl)noc1-c1cnn(-c2ccncc2)c1C(F)(F)F [IB-82, isopropyl 3-(2-chloro-6-fluorophenyl)-5-(1-(pyridin-4-yl)-5-(trifluoromethyl)-1H-pyrazol-4-yl)isoxazole-4-carboxylate]
IC50 (IL-17FF; [2]): 10 to 100 nM
IC50 (IFN-γ; [3]): 10 to 100 nM
IC50 [1, 4]: 10 to 100 nM

Cc1nnc(-c2c(-c3c(F)cccc3Cl)noc2-c2cnn(-c3ccccn3)c2C(F)(F)F)o1 [Example B-26, 2-(3-(2-chloro-6-fluorophenyl)-5-(1-(pyridin-2-yl)-5-(trifluoromethyl)-1H-pyrazol-4-yl)isoxazol-4-yl)-5-methyl-1,3,4-oxadiazole]
IC50 (IL-17FF; [5]): 10 to 100 nM
IC50 (IFN-γ; [6]): 10 to 100 nM
IC50 [1, 7]: 100 to 1000 nM

NC(=O)c1c(-c2c(F)cccc2Cl)noc1-c1cnn(-c2cccc(Cl)c2)c1C(F)(F)F [Example I-121, 3-(2-chloro-6-fluorophenyl)-5-(1-(3-chlorophenyl)-5-(trifluoromethyl)-1H-pyrazol-4-yl)isoxazole-4-carboxamide]
IC50 (IL-17FF; [2]): 1000 to 10000 nM
IC50 (IFN-γ; [3]): 1000 to 10000 nM
IC50 [1, 4]: 1000 to 10000 nM

N#Cc1c(-c2c(F)cccc2Cl)noc1-c1cnn(-c2cccc(F)c2)c1C(F)(F)F [Example I-120, 3-(2-chloro-6-fluorophenyl)-5-(1-(3-fluorophenyl)-5-(trifluoromethyl)-1H-pyrazol-4-yl)isoxazole-4-carbonitrile]
IC50 (IL-17FF; [2]): 100 to 1000 nM
IC50 (IFN-γ; [3]): 100 to 1000 nM
IC50 [1, 4]: 100 to 1000 nM

COC(=O)c1c(-c2c(F)cccc2Cl)noc1-c1cnn(-c2ccccc2F)c1 [Example I-89, Methyl 3-(2-chloro-6-fluorophenyl)-5-[1-(2-fluorophenyl)-1H-pyrazol-4-yl]isoxazole-4-carboxylate]
IC50 (IL-17FF; [2]): 10 to 100 nM
IC50 (IFN-γ; [3]): 100 to 1000 nM
IC50 [1, 4]: 100 to 1000 nM

Cc1nnc(-c2c(-c3c(F)cccc3Cl)noc2-c2cnn(-c3ccccc3Cl)c2C(F)(F)F)s1 [Example B-20, 3-(2-chloro-6-fluorophenyl)-5-(1-(2-chlorophenyl)-5-(trifluoromethyl)-1H-pyrazol-4-yl)-4-(5-methyl-1,3,4-thiadiazol-2-yl)isoxazole]
IC50 (IL-17FF; [5]): 100 to 1000 nM
IC50 (IFN-γ; [6]): 100 to 1000 nM
IC50 [1, 7]: 100 to 1000 nM

CCOC(=O)c1c(-c2onc(-c3c(F)cccc3Cl)c2C(=O)OC)cnn1-c1ccc(F)cc1 [Example I-26, methyl 3-(2-chloro-6-fluorophenyl)-5-(5-(ethoxycarbonyl)-1-(4-fluorophenyl)-1H-pyrazol-4-yl)isoxazole-4-carboxylate]
IC50 (IL-17FF; [2]): 1000 to 10000 nM
IC50 (IFN-γ; [3]): 1000 to 10000 nM
IC50 [1, 4]: 1000 to 10000 nM

COC(=O)c1c(-c2ccccc2F)noc1-c1cnn(-c2cccc(Cl)c2)c1C(F)(F)F [IB-77, methyl 5-(1-(3-chlorophenyl)-5-(trifluoromethyl)-1H-pyrazol-4-yl)-3-(2-fluorophenyl)isoxazole-4-carboxylate]
IC50 (IL-17FF; [2]): 10 to 100 nM
IC50 (IFN-γ; [3]): 10 to 100 nM
IC50 [1, 4]: 10 to 100 nM

CCOC(=O)c1c(-c2ccc(Cl)cc2)noc1-c1cnn(-c2cccc(Cl)c2)c1C(F)(F)F [Example I-77, ethyl 3-(4-chlorophenyl)-5-(1-(3-chlorophenyl)-5-(trifluoromethyl)-1H-pyrazol-4-yl)isoxazole-4-carboxylate]
IC50 (IL-17FF; [2]): 1000 to 10000 nM
IC50 [1, 4]: 1000 to 10000 nM

CCOC(=O)c1c(-c2onc(-c3c(F)cccc3Cl)c2C(=O)OC)cnn1-c1cccc(Cl)c1Cl [Example I-9, methyl 3-(2-chloro-6-fluorophenyl)-5-(1-(2,3-dichlorophenyl)-5-(ethoxycarbonyl)-1H-pyrazol-4-yl)isoxazole-4-carboxylate]
IC50 (IL-17FF; [2]): 1000 to 10000 nM
IC50 [1, 4]: 1000 to 10000 nM

CNC(=O)c1c(-c2c(F)cccc2Cl)noc1-c1cnn(-c2cc(F)cc(F)c2)c1C(F)(F)F [Example I-58, 3-(2-chloro-6-fluorophenyl)-5-(1-(3,5-difluorophenyl)-5-(trifluoromethyl)-1H-pyrazol-4-yl)-N-methylisoxazole-4-carboxamide]
IC50 (IL-17FF; [2]): 1000 to 10000 nM
IC50 (IFN-γ; [3]): 100 to 1000 nM

O=C(c1c(-c2c(F)cccc2Cl)noc1-c1cnn(-c2ccccc2F)c1C(F)(F)F)N1CCCC1 [Example I-22, (3-(2-chloro-6-fluorophenyl)-5-(1-(2-fluorophenyl)-5-(trifluoromethyl)-1H-pyrazol-4-yl)isoxazol-4-yl)(pyrrolidin-1-yl)methanone]
IC50 (IL-17FF; [2]): 100 to 1000 nM
IC50 (IFN-γ; [3]): 100 to 1000 nM

CNC(=O)c1c(-c2cccc(F)c2)noc1-c1cnn(-c2cccc(F)c2)c1C(F)(F)F [Example I-105, 3-(3-fluorophenyl)-5-(1-(3-fluorophenyl)-5-(trifluoromethyl)-1H-pyrazol-4-yl)-N-methylisoxazole-4-carboxamide]
IC50 (IL-17FF; [2]): 1000 to 10000 nM
IC50 (IFN-γ; [3]): 1000 to 10000 nM

CC(=O)Nc1cccc(-n2ncc(-c3onc(-c4c(F)cccc4Cl)c3C(=O)N3CCCO3)c2C(F)(F)F)c1 [IB-88, N-(3-(4-(3-(2-chloro-6-fluorophenyl)-4-(isoxazolidine-2-carbonyl)isoxazol-5-yl)-5-(trifluoromethyl)-1H-pyrazol-1-yl)phenyl)acetamide]
IC50 (IL-17FF; [2]): 1000 to 10000 nM
IC50 (IFN-γ; [3]): 1000 to 10000 nM

Fc1cc(F)c(F)c(-n2ncc(-c3onc(-c4c(F)cccc4Cl)c3Br)c2C(F)(F)F)c1F [Example I-144, 4-bromo-3-(2-chloro-6-fluorophenyl)-5-(1-(2,3,5,6-tetrafluorophenyl)-5-(trifluoromethyl)-1H-pyrazol-4-yl)isoxazole]
IC50 (IL-17FF; [2]): 1000 to 10000 nM
IC50 (IFN-γ; [3]): 1000 to 10000 nM

COC(=O)c1c(-c2c(F)cccc2Cl)noc1-c1cnn(-c2ccccc2OC)c1C(F)(F)F [Example I-52, methyl 3-(2-chloro-6-fluorophenyl)-5-(1-(2-methoxyphenyl)-5-(trifluoromethyl)-1H-pyrazol-4-yl)isoxazole-4-carboxylate]
IC50 (IL-17FF; [2]): 100 to 1000 nM
IC50 (IFN-γ; [3]): 100 to 1000 nM

CON(C)C(=O)c1c(-c2c(F)cccc2Cl)noc1-c1cnn(-c2cccc(S(N)(=O)=O)c2)c1C(F)(F)F [IB-66, 3-(2-chloro-6-fluorophenyl)-N-methoxy-N-methyl-5-(1-(3-sulfamoylphenyl)-5-(trifluoromethyl)-1H-pyrazol-4-yl)isoxazole-4-carboxamide]
IC50 (IL-17FF; [2]): 1000 to 10000 nM
IC50 (IFN-γ; [3]): 1000 to 10000 nM

CNC(=O)c1c(-c2ccccc2)noc1-c1cnn(-c2cc(F)cc(F)c2)c1C(F)(F)F [Example I-113, 5-(1-(3,5-difluorophenyl)-5-(trifluoromethyl)-1H-pyrazol-4-yl)-N-methyl-3-phenylisoxazole-4-carboxamide]
IC50 (IL-17FF; [2]): 1000 to 10000 nM
IC50 (IFN-γ; [3]): 1000 to 10000 nM

NS(=O)(=O)c1cccc(-n2ncc(-c3onc(-c4c(F)cccc4Cl)c3C(=O)N3CCCO3)c2C(F)(F)F)c1 [IB-65, 3-(4-(3-(2-chloro-6-fluorophenyl)-4-(isoxazolidine-2-carbonyl)isoxazol-5-yl)-5-(trifluoromethyl)-1H-pyrazol-1-yl)benzenesulfonamide]
IC50 (IL-17FF; [2]): 1000 to 10000 nM
IC50 (IFN-γ; [3]): 1000 to 10000 nM

CCOC(=O)c1c(-c2c(F)cccc2Cl)noc1-c1cnn(Cc2ccncc2)c1C(F)(F)F [IB-85, ethyl 3-(2-chloro-6-fluorophenyl)-5-(1-(pyridin-4-ylmethyl)-5-(trifluoromethyl)-1H-pyrazol-4-yl)isoxazole-4-carboxylate]
IC50 (IL-17FF; [2]): 1000 to 10000 nM
IC50 (IFN-γ; [3]): 1000 to 10000 nM

O=CNc1c(-c2c(F)cccc2Cl)noc1-c1cnn(-c2cccc(Cl)c2)c1C(F)(F)F [IB-48, N-(3-(2-chloro-6-fluorophenyl)-5-(1-(3-chlorophenyl)-5-(trifluoromethyl)-1H-pyrazol-4-yl)isoxazol-4-yl)formamide]
IC50 (IL-17FF; [2]): 1000 to 10000 nM
IC50 [1, 4]: 1000 to 10000 nM

CCOC(=O)c1c(-c2c(F)cccc2Cl)noc1-c1cnn(Cc2ccccn2)c1C(F)(F)F [IB-104, ethyl 3-(2-chloro-6-fluorophenyl)-5-(1-(pyridin-2-ylmethyl)-5-(trifluoromethyl)-1H-pyrazol-4-yl)isoxazole-4-carboxylate]
IC50 (IL-17FF; [2]): 1000 to 10000 nM
IC50 (IFN-γ; [3]): 1000 to 10000 nM

Reference: patent US8354436B2 (4SC Discovery GmbH, priority 2011, dated 2013)
